Measured values published in publication PMC11003484 (Journal of Enzyme Inhibition and Medicinal Chemistry, 2023).
Structures can show the parent of a compound that is named as a salt.

Legend:
HEV helicase [1] = biological target: T1, HEV helicase (Hepatitis E virus genotype 1, UniProt P33424); assay: biochemical; format: biochemical
T1 construct: The HEV helicase (735 bp) was amplified from the HEV (genotype 1; AF444002.1) cDNA clone; made in house; host or cells: E. coli BL21(DE3), pET28a; solubilised from inclusion bodies with NLS
T1 sequence (P33424 960-1204): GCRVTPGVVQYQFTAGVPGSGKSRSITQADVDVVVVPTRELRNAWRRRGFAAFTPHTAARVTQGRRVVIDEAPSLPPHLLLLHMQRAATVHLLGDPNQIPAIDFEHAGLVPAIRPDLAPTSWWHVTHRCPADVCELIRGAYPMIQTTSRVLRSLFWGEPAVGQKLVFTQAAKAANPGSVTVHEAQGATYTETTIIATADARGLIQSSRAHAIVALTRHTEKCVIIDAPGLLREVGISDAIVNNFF
Text: (§1) The HEV helicase (735 bp) was amplified from the HEV (genotype 1; accession no. AF444002.1) cDNA clone pSK-HEV-2[23]^,[25] using the forward and reverse primers sets (5′agcc|atatgggttgccgtgtgacc3′ and 5′gtgc|tcgagttaaaagaagttgttcac3′). Following standard laboratory procedures, the amplified gene was cloned in the pET28a vector between NdeI and Xho I restriction sites. The cloning was verified using colony PCR using Nde I and Xho I (New England BioLabs, Ipswich, MA) double digestion and DNA sequencing. The recombinant plasmid was further transformed to BL21(DE3) using the routine protocol for expressing HEV helicase. The transformed recombinant BL21 cells were expanded until the culture’s optical density (OD600 nm) reached 0.6 before being induced with 0.4 mM IPTG (Sigma Aldrich, St. Louis, MO) at 26 °C for 4 h. The protein solubilisation was carried out as described previously. The Immobilised Metal Affinity Chromatography (IMAC) was used to purify the solubilised protein, and the protein was eluted in a buffer containing 10 mM Tris–Cl (pH 8.0), (Sigma Aldrich), 100 mM NaCl (Sigma Aldrich), 250 mM imidazole, and 0.1% N-lauryl Sarcosine (NLS; Sigma Aldrich). Further, the buffer of purified protein was exchanged with 10 mM Tris–Cl (pH 8.0), 100 mM NaCl, and 0.08% NLS before proceeding with enzyme assays.
The NTPase activity of the HEV helicase enzyme was performed using a colorimetric-based Malachite green test[27]. The assay followed the manufacturer’s instructions The malachite green assay was performed as per the manufacturer’s protocol (Sigma Aldrich) cat no MAK307-1KT. The assay operates on the phosphate release from the reaction between malachite green and molybdate (AM/MG reagent) as the basis for complexation. […] The absorbance was measured on plate reader and a standard curve was generated using known concentrations of phosphate ranging from 0 to 44 uM to correlate absorbance with released phosphate concentration. The absorbance was plotted on Y-axis against the phosphate concentration on X-axis, and a straight-line equation (Y = 0.02182 * X + 0.04158) was determined using linear regression in GraphPad Prism version 9.0 (Boston, MA). The graphs were plotted as a function of the concentration of phosphate released. The effects of pH, temperature, enzyme concentration, and substrate concentration on helicase enzyme activity were studied to optimise enzyme activity.
Based on their docking score, hydrogen bonds, and protein–ligand interaction, the five selected compounds from virtual screening were tested for their ability to suppress NTPase activity. The putative inhibitors’ concentrations ranged from 0 to 10 µM during the optimisation-focused inhibition tests on the purified protein’s NTPase activity. […] The working reagent was added after the reaction mixture had been incubated at RT for 10 min, and the absorbance was measured at 600 nm.
(§2) All the experiments were performed in triplicates, and the graphs were plotted using GraphPad Prism software (Boston, MA).

HEV helicase [2] = biological target: T1, HEV helicase; assay: Double-stranded RNA unwinding activity / inhibition assay (fluorescence); format: biochemical; conditions: dsRNA unwinding, purified helicase, RT
Text: as §1, §2

p6 HEV-Luc Replicon = assay: HEV replicon (p6 HEV-Luc) luciferase assay in Huh7 cells; format: cell-based; conditions: Hepatitis E virus, Huh-7, 72 h, read-out: IC50 HEV replicon luciferase activity
Text: (§3) For transfection, pSHEV-3 (cDNA clone of HEV genotype 3; accession no. AY575859.1) was linearised using Xba I (New England BioLabs). The helicase region of GT1 and GT3 share greater than 90% sequence homology Sub-genomic HEV carrying luciferase gene (accession number JQ679013) was linearised for replicon assay with MluI. The linearised DNA was subjected to in vitro transcription, as mentioned previously[26]^,[36], and the RNA was transfected in Huh7 cells using Lipofectamine 3000 (Invitrogen, Carlsbad, CA). Briefly, a day before transfection, approximately 0.8 × 10^6 cells were seeded in each well of a six-well plate, and for HEV replicon assay, ∼5–7 × 10[3] cells were seeded in each well of 96 plate. After 24 h, the media was removed, the cells were washed twice with Opti-MEM media (Gibco™, Grand Island, NY), and the transfection mixture was prepared as mentioned earlier[25]^,[26]. The cells were incubated with a transfection mixture for 6–8 h at 37 °C.
Following transfection, the cells were incubated with inhibitors for 72 h at 37 °C in a CO2 incubator. […] The cells were then lysed according to the manufacturer’s protocol, and the luminescence was recorded on Tecan Spark® (Tecan Trading AG, Switzerland) multimode plate reader. In replicon, the luminescence was normalised w.r.t to uninfected (0%) and untreated cells (100%).

[3] = system: HEV replication (ORF2 expression); assay: microbe, parasite or virus in culture; format: cell-based, Hepatitis E Virus
Text: as §3
For IFA, the cells were grown on a 96-well plate and transfected using Lipofectamine, as mentioned above. […] The cells were incubated for 4–5 d, and subsequently, the media was removed, and the cells were carefully washed twice with 1X PBS. The cells were fixed with 4% paraformaldehyde (PFA) and incubated for 5–10 min at RT. After fixing, the cells were again washed with 1× PBS, and the permeabilisation was performed using PBS with 0.1% Triton-X and 0.1% BSA (Bovine Serum Albumin, HiMedia, Mumbai, India). The blocking was performed using 3% BSA for 1 h at RT. After blocking, the cells were incubated with anti-HEV-ORF2 (Dilution, 1:400) antibody against the HEV capsid protein for 1 h at RT. The cells were washed thrice with PBS-T (Tween-20, 0.05%, Sigma Aldrich). The Goat-Anti-Rabbit Alexa Fluor 488 (Thermo Fisher) was used as a secondary antibody, and the cells were incubated for 30 min in the dark. The cells were washed thrice with PBS-T and stained with DAPI (Invitrogen™). […]

Huh7 cells = system: Huh7 cells
Procedure: To study the cell viability, Huh7 cells were grown in Dulbecco’s Modified Eagle Medium (DMEM, Gibco™, Life Technologies, Grand Island, NY), supplemented with 10% Foetal Bovine Serum (FBS, Gibco™, Qualified, Brazil origin). Further, Huh7 cells were seeded in a 96-well plate (∼0.7 × 10^4 cells/well) and incubated at 37 °C in a humidified 5% CO2 incubator. […] After 4 d, the MTT (3-dimethylthiazol-2-yl-diphenyl tetrazolium bromide) assay was performed per the manufacturer’s protocol (Himedia Laboratories, Thane, India). Cell viability percentage was calculated by comparing treated cells with untreated cells.

[4] = read-out: IC50 (µM) NTPase activity

Question: How did the IC50 (HEV helicase [1]; [4]) turn out when `COc1cccc2c1C(=O)c1c(O)c3c(c(O)c1C2=O)C[C@@](O)(C(C)=O)C[C@@H]3O[C@H]1C[C@H](N)[C@H](O)[C@H](C)O1` [Daunorubicin HCL, daunorubicin HCL] was run?
Answer: 7.66 µM

Question: What about the IC50 (HEV helicase [2]) of the same molecule?
Answer: 8.25 µM

Question: Which results are given for `O=C(O)c1cc(=O)c2c(OCC(O)COc3cccc4oc(C(=O)O)cc(=O)c34)cccc2o1` [Disodium cromoglycate, disodium cromoglycate]?
Answer: IC50 (HEV helicase [1]; [4]): 14.8 µM; IC50 (HEV helicase [2]): 39.8 µM

Question: Which Km (HEV helicase [1]; read-out: Km (substrate, NTPase activity), GTP 0 to […], Michaelis-Menten fit) does the source give for `Nc1nc2c(ncn2C2OC(COP(=O)(O)OP(=O)(O)OP(=O)(O)O)C(O)C2O)c(=O)[nH]1` (centres unmarked) [GTP] here?
Answer: 350 µM

Question: Which IC50 (HEV helicase [1]) does the source give for `CN1c2c(nc(N)[nH]c2=O)NC[C@@H]1CNc1ccc(C(=O)N[C@@H](CCC(=O)O)C(=O)O)cc1` [Levomefolic acid, 5-methyltetrahydrofolate (levomefolic acid)] here?
Answer: 3.65 µM

Question: What about the IC50 (HEV helicase [2]) of the same molecule?
Answer: 13.9 µM

Question: `CN(Cc1cnc2nc(N)nc(N)c2n1)c1ccc(C(=O)N[C@@H](CCC(=O)O)C(=O)O)cc1` [Methotrexate] was tested. Which IC50 (p6 HEV-Luc Replicon) did it give?
Answer: 0.0731 ± 0.0127 µM

Question: And the “HEV replication inhibition (IFA)” value ([3]; 50 nM Mtx)?
Answer: ~81%

Question: What about the “fluorescence level (ORF2, IFA)” value ([3]; 100 nM methotrexate, untreated 100%) of the same molecule?
Answer: ~6%

Question: What about the inhibition at 0.1 µM ([3]; Hepatitis E virus, Huh-7, read-out: inhibition of HEV replication (IFA)) of the same molecule?
Answer: ~94%

Question: And the “Cytotoxicity (MTT assay)” value (Huh7 cells)?
Answer: < 100 nM

Question: Which results are given for `C[C@]12C=CC(=O)C=C1CC[C@@H]1[C@@H]2[C@@H](O)C[C@@]2(C)[C@H]1CC[C@]2(O)C(=O)CO` [Prednisolone]?
Answer: IC50 (HEV helicase [1]; [4]): 4.2 µM; IC50 (HEV helicase [2]): 25.8 µM
